# According to EP4623928A1, “GLP-1R ANTAGONISTS FOR THE TREATMENT OF CANCER” (Fiorina, Paolo, priority 2024, dated 2025):
# Columns and labels:
# [1] = test system: mitogen-stimulated murine splenocytes; assay: IFN-γ ELISpot assay on anti-CD3/anti-CD28 stimulated splenocytes; format: cell-based, C57BL/6 mice; details: Exe-4 at 0.1, 1 or 10 nM, soluble anti-CD3 and anti-CD28, 24 hours
# Protocol: An ELISPOT assay was used to measure the number of IFN-γ-producing cells according to the manufacturer's protocol (BD Biosciences) as previously performed by our group (39). To test the role of GLP-1R-driven immunity on the anti-CD3/28 non-autoimmune specific response, 1×10^6 splenocytes isolated from C57BL/6 mice were cultured in a microwell plate (BD Biosciences) coated with IFN-y capture antibody (Ab) in the presence of the following soluble anti-CD3 and anti-CD28 at 0,5ug/ml for 24 hours. Exe-4 and/or Exe-4+Exe-9-39 at concentrations of 0.1, 1 or 10 nM were added to the culture. After 24 hours, bound secondary Ab was visualized using HRP-streptavidin and the AEC substrate kit (BD Biosciences). Spots were counted using an Immunospot analyzer (Cellular Technology Ltd., Cleveland, OH) and expressed as the number of cytokine-producing spots per 1×10^6 cells. After 24hours, ELISpot plates were developed and acquired on an ELISpot reader, as previously described.
# [2] = test system: GLP-1R^pos and GLP-1R^neg CD3^+ T cells; assay: Transwell migration assay toward SDF-1, GLP-1Rpos and GLP-1Rneg CD3+ T cells; format: cell-based, C57BL/6 mice; details: GLP-1R^neg CD3^+ T cells only, Exe-4 (1 nM), SDF-1 gradient
# Protocol: (§1) Transwell migration assays were performed on GLP-1R^pos and GLP-1R^neg CD3^+ cells or respectively untransduced-mock CD3^+ T cells or pmY-GLP-1R transduced CD3^+ T cells, freshly isolated or activated with anti-CD3/CD28 (0.5 µg /ml each) in the presence or not of Exe-4 (1 nM). Chemotaxis assessments via transwell migration assay were performed using polycarbonate membranes with 5 µm pores (Corning) in accordance with the manufacturer's instructions and as previously published (42). Cells were washed, re-suspended in migration media (RPMI), and added to the upper chamber of the plate, while migration media containing 0 or 50 ng/mL SDF-1 (R&D Systems) was added to the bottom chamber. Treated cells were incubated over night at 37°C to migrate through the polycarbonate membrane into the bottom chamber. Input cell counts were obtained by flow cytometry with a BD FACSCelesta (BD, Biosciences) as well as cell counts of migrated cells in the lower chambers. Migration percentage was calculated as the number of cells in the lower chamber (migrated) compared to total input cell count for three separate wells. Mean migration percentages and standard deviations (SD) were calculated across the different donor cell lots. Analysis of lower chambers without SDF-1 (negative gradients) was used to control for any nonspecific increase in chemotaxis.
# [3] = test system: naive CD4^+CD25^- T cells; assay: Treg induction assay; format: cell-based; details: Exe-4 (1nM), 5 days
# Protocol: Naive CD4^+ CD25^- T cells were selected and activated for 5 days with 1 µg/ml of plate-bound […] anti-CD3 and anti-CD28 antibodies (BD Biosciences). Cells were cultured for 5-days in the presence of IL-2 (10ng/ml; R&D Systems) and TGFβ (2ng/mL; R&D Systems), anti-IL-4 (0.5µg/ml; PeproTech) and anti-IFNγ (2µg/mL; PeproTech) and were treated with Exe-4 (1nM) or left untreated. Then, cells were washed, pulsed for 4-hrs with phorbol myristate acetate (PMA; 50ng/mL; Sigma-Aldrich), ionomycin (500ng/mL; Sigma-Aldrich) and Golgi-stop (1.0µl/mL; BD Biosciences) and then analyzed by FACSCelesta (BD Biosciences) for the expression of Foxp3, Tbet and RoryT as previously reported (38).
# effector T cells = assay: Effector T cell suppression by iTregs generated with Exe-4 (CTV dilution); format: cell-based; details: iTregs generated in the presence of Exe-4, ratio of 1: 4 to effector T cells, vs untreated-iTregs
# [4] = test system: untransduced-mock and pmY-GLP-1R transduced CD3^+ T cells; assay: Proliferation, apoptosis and IFN-γ expression of untransduced-mock and pmY-GLP-1R transduced CD3+ T cells; format: cell-based, murine; details: Exe-4
# Protocol: The mGLP-1R cDNA construct (Origene) was inserted into the pMY-IRES-GFP plasmid (Cell BioLabs, Inc., San Diego, CA). The Platinum-E Retroviral Packaging cell line was transfected with the pMY-IRES-GFP plasmid expressing GLP-1R using polybrene (Santa Cruz Biotechnology), and supernatant was collected. T cells were activated for 48 hours in the presence of soluble anti-CD3/CD28 at 0.5 µg/ml each in the presence of IL-2 (400 ng/ml) (R&D Systems), and viral supernatant was added. The upregulation of GLP-1R was assessed by FACS and western blot analysis.
# [5] = test system: untransduced-mock and pmY-GLP-1R transduced CD3^+ T cells; assay: Transwell migration assay toward SDF-1, mock and pmY-GLP-1R transduced CD3+ T cells; format: cell-based, murine; details: both untransduced-mock and pmY-GLP-1R transduced CD3^+ T cells, Exe-4 (1 nM)
# Protocol: as §1
# [6] = both untransduced-mock and pmY-GLP-1R transduced CD3^+ T cells
substance,measurement,setting,value
Exendin-4 [Exe-4],number of IFN-y producing cells,[1],significantly reduced
same,migratory potential,[2],reduced
same,Ror-yT on iTregs (iTreg stability),[3],significant reduction
same,Tbet on iTregs (iTreg stability),[3],significant reduction
same,Treg induction (percentage of FoxP3^+CD4^+CD25^+ Tregs),[3],no substantial differences
same,suppression of effector T cells by iTregs,effector T cells,significantly reduced suppression
same,IFN-γ expression,[4]; [6],without any effect
same,proliferation,[4]; [6],no effect
same,apoptosis,[4]; pmY-GLP-1R transduced CD3^+ T cells only,significantly increased
same,migratory ability in response to SDF-1,[5],reduced
